From PMC8757871, “Bridging the Antimicrobial Activity of Two Lactoferricin Derivatives in E. coli and Lipid-Only Membranes” (Frontiers in Medical Technology, 2021)

What was measured:
[1] = ANTS/DPX dye leakage assay and equi-activity partitioning analysis; conditions: for K (mole fraction partitioning coefficient) / RB ([P]B/[L]) / [P]W (peptide concentration in the water phase): fit of Equation (4), [L] = (1−20) mM, [P] = (0.05−2) mM, HBS
Description: (§1) All hydrated samples were equilibrated for 1 h at 40°C followed by 5 freeze-and-thaw cycles using liquid N2 and intermittent vortex-mixing. Large unilamellar vesicles (LUVs) were obtained by 31 extrusions with a handheld mini extruder (Avanti Polar Lipids, Alabaster, AL) using a 100 nm pore diameter polycarbonate filter. Vesicle size and polydispersity were determined via DLS using a Zetasizer NANO ZSP (Malvern Panalytical, Malvern, UK). ANTS/DPX-containing vesicles were separated from free ANTS/DPX by exclusion chromatography using a column filled with SephadexTM G-75 (Amersham Biosciences, Little Chalfont, UK) fine gel swollen in iso-osmotic HBS. Phospholipid concentrations for all samples were determined by phosphate analysis.
(§2) Dye leakage experiments were performed combining previously reported protocols ([20], [27]). In brief, the dependencies of ANTS/DPX leakage on lipid and peptide concentration were determined by first incubating lipid vesicles ([L] = 1, 4, 10, and 20 mM) with peptides [[P] = (0.025−2) mM] at 37°C for 1 h using a gently rocking shaker (Eppendorf Thermomixer C, Hamburg, Germany). Similar time protocols were applied previously ([27]) and are justified here based on separate time-resolved leakage experiments (Supplementary Figure 3) and Trp-fluorescence measurements (Figure 3), showing that a quasi steady state has been reached after 1 h. Before measurements, lipid/peptide solutions were diluted with HBS to a lipid concentration of 50 μM, and every measurement was repeated at least twice. Vesicle size was checked after each incubation period using DLS. Samples were excited at λ= 360 nm, and the intensity of the fluorescence emission peak at λ= 530 nm, Ip, was recorded with a slit width of 10 nm for both excitation and emission monochromators. Measurements were performed in quartz cuvettes in 2 ml of the iso-osmotic buffer on a Cary Eclipse Fluorescence Spectrophotometer (Varian/Agilent Technologies, Palo Alto, CA). The percentage of leakage, E%, was calculated according to the relation
(§3) (1) E%=Ip-Imin/Imax-Imin,
(§4) where Imin is the initial fluorescence without peptide, and Imax is the fluorescence corresponding to 100% leakage determined through the addition of a 1 vol% solution of Triton X-100. The initial, monotonic increase of E% values with increasing [P] was interpolated with a sigmoidal function. This enabled us to obtain peptide and lipid concentrations leading to a specific E% value, which can in turn be used to calculate the partitioning parameters (see section 2.3.1).
(§5) (4) [P]=RB[W]/K︸[P]W+RB[L]︸[P]B=RB([W]/K+[L]),

[2] = as above; conditions: for K (mole fraction partitioning coefficient) / RB ([P]B/[L]) / [P]W (peptide concentration in the water phase): fit of Equation (4), [L] = (1−20) mM, [P] = (0.05−2) mM, HBS; remark: listed apart in the source
Description: as §1
as §2, with “In brief, the dependencies of ANTS/DPX leakage on lipid and peptide concentration were determined by first incubating lipid vesicles ([L] = 1, 4, 10, and 20 mM) with peptides [[P] = (0.025−2) mM] at 37°C for 1 h using a gently rocking shaker (Eppendorf Thermomixer C, Hamburg, Germany).” left out
as §3, §4, §5

[3] = POPE/POPG LUVs, leakage 10%, 1 h at 37°C
[4] = POPE/POPG LUVs, leakage 15%, 1 h at 37°C
[5] = POPE/POPG/TOCL LUVs, leakage 10%, 1 h at 37°C
[6] = POPE/POPG/TOCL LUVs, leakage 20%, 1 h at 37°C
[7] = POPE/POPG/TOCL LUVs, leakage 40%, 1 h at 37°C
[8] = POPG LUVs, leakage 10%, 1 h at 37°C
[9] = POPG LUVs, leakage 20%, 1 h at 37°C
[10] = POPG LUVs, leakage 40%, 1 h at 37°C

H-FWRIRIRR-NH2 [LF11-215, H-FWRIRIRR-NH2]
maximum amount of partitioned AMPs ([1]; PE-containing systems, [L] ≃20 mM): < 80%
ANTS/DPX dye efflux, time-resolved ([1]; POPE/POPG LUVs [L] = 50 µM, [P] = 0.5 µM, converging after 25 min): ~5%
K (mole fraction partitioning coefficient) [1, 3]: 1.37 ± 0.16 ×10^4
RB ([P]B/[L]) [1, 3]: 9.8 ± 0.4 ×10^−3
[P]W (peptide concentration in the water phase) [1, 3]: 0.040 ± 0.006 mM
K (mole fraction partitioning coefficient) [1, 4]: 0.75 ± 0.15 ×10^4
RB ([P]B/[L]) [1, 4]: 10.7 ± 1.0 ×10^−3
[P]W (peptide concentration in the water phase) [1, 4]: 0.08 ± 0.02 mM
total ANTS/DPX efflux ([1]; POPE/POPG vesicles, 1 h at 37°C, all [P] and [L] tested): ≤ 40%
K (mole fraction partitioning coefficient) [1, 5]: 1.7 ± 0.8 ×10^4
RB ([P]B/[L]) [1, 5]: 5.6 ± 0.7 ×10^−3
[P]W (peptide concentration in the water phase) [1, 5]: 0.018 ± 0.010 mM
K (mole fraction partitioning coefficient) [1, 6]: 1.5 ± 0.3 ×10^4
RB ([P]B/[L]) [1, 6]: 7.2 ± 0.5 ×10^−3
[P]W (peptide concentration in the water phase) [1, 6]: 0.026 ± 0.007 mM
K (mole fraction partitioning coefficient) [1, 7]: 1.5 ± 0.4 ×10^4
RB ([P]B/[L]) [1, 7]: 9.6 ± 0.9 ×10^−3
[P]W (peptide concentration in the water phase) [1, 7]: 0.036 ± 0.012 mM
K (mole fraction partitioning coefficient) [2, 8]: 2.4 ± 0.7 ×10^4
RB ([P]B/[L]) [2, 8]: 36 ± 4 ×10^−3
[P]W (peptide concentration in the water phase) [2, 8]: 0.08 ± 0.03 mM
K (mole fraction partitioning coefficient) [2, 9]: 4.2 ± 0.4 ×10^4
RB ([P]B/[L]) [2, 9]: 55.9 ± 1.6 ×10^−3
[P]W (peptide concentration in the water phase) [2, 9]: 0.073 ± 0.009 mM
K (mole fraction partitioning coefficient) [2, 10]: 5.4 ± 1.4 ×10^4
RB ([P]B/[L]) [2, 10]: 72 ± 6 ×10^−3
[P]W (peptide concentration in the water phase) [2, 10]: 0.08 ± 0.03 mM
ANTS/DPX leakage, maximum reached (sigmoidal increase up to) ([2]; POPG LUVs, 1 h at 37°C, increasing [P]): ≤ 100%
fraction of peptides partitioned into the lipid phase ([2]; POPG, at [L] ≃20 mM): > 90%
